According to patent US12448394B2, “Heterocyclic pyrazole derivatives as type III receptor tyrosine kinase inhibitors” (DEVELOPMENT CENTER FOR BIOTECHNOLOGY, priority 2019, dated 2025):

Experiments:
[1] = test system: HCC827 NSCLC cell with EGFR exon 19 deletion mutation; assay: HCC827 cell proliferation assay (counter screen); type: cell-based, human; details: Homo sapiens, HCC827 cells, 72 hours treatment, CellTiter96, read-out: anti-proliferation activity HCC827 EGFR Exon19 del, IC50 ranking
How it was run: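 HCC827 cells (EGFR exon 19 deletion) were seeded at 8000 cells/well in RPMI1640 with 10% FBS, then exposed to increasing compound concentrations for 72 h at 37 °C. Viability was read by CellTiter96 AQueous One (MTS), absorbance 490 nm after 2–4 h.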

[2] = test system: THP-1 human acute monocytic leukemia cell with NRAS G12D mutation; assay: THP-1 cell proliferation assay (counter screen); type: cell-based; details: Homo sapiens, THP-1 cells, 72 hours treatment, CellTiter96, read-out: anti-proliferation activity THP-1 NRAS N12D, IC50 ranking
How it was run: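 Viability measured as 490 nm absorbance after 2–4 h with CellTiter96 AQueous One reagent, following 72 h treatment with rising compound concentrations. THP-1 cells, 5000/well, grown in RPMI 1640 with 10% FBS and 0.05 mM 2-mercaptoethanol at 37° C, 5% CO2, plated overnight before dosing.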

[3] = test system: A375 melanoma cell with BRAF V600E mutation; assay: A375 cell proliferation assay (counter screen); type: cell-based, human; details: Homo sapiens, A-375, A375 cells, 72 hours treatment, CellTiter96, read-out: anti-proliferation activity A375 BRAF V600E, IC50 ranking
How it was run: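 A375 cells (BRAF V600E) seeded at 2000 cells/well in DMEM with 10% FBS, settled overnight at 37° C, 5% CO2, then exposed to increasing compound concentrations for 72 hours. Viability read by MTS-type CellTiter96 AQueous reagent, absorbance at 490 nm after 2–4 hours.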

PDGFRα kinase = target: T1, PDGFRα kinase (Homo sapiens, UniProt P16234); assay: PDGFRα kinase assay (AlphaScreen); type: biochemical; details: read-out: Ranking of IC50 values, PDGFRα
T1 construct: purchased SignalChem
T1 sequence (P16234 24-1089): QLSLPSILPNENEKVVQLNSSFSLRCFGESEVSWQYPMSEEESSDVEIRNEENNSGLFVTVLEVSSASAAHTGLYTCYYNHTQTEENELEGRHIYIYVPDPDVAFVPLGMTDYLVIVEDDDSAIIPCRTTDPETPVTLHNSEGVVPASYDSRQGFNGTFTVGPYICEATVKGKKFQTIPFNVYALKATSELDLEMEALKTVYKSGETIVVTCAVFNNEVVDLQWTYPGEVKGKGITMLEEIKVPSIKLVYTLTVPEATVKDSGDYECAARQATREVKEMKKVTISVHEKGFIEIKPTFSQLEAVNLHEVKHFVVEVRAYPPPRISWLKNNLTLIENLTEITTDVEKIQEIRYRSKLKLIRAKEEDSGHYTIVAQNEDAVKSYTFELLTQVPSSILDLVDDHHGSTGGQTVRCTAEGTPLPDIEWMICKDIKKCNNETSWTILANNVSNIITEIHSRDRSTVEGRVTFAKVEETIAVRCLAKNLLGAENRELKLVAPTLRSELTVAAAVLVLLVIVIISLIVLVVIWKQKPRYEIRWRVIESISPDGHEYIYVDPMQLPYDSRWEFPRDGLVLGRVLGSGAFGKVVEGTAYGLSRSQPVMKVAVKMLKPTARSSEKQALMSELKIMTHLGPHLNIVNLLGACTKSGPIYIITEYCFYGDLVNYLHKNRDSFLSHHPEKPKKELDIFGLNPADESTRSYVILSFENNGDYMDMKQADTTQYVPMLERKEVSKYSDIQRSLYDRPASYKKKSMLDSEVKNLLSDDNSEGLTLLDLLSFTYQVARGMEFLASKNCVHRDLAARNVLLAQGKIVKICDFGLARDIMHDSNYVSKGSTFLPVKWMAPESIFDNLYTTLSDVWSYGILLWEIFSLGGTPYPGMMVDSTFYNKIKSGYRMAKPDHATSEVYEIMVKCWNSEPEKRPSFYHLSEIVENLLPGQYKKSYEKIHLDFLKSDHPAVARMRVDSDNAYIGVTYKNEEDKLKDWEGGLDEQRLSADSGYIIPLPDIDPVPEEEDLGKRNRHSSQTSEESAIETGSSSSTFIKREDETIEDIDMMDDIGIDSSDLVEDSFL
How it was run: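 IC50 values came from duplicate serial dilutions, with product read by AlphaScreen. The reaction ran 30 min at 30 °C, then EDTA stop: 1.5 ng recombinant enzyme, biotin-poly(Glu4:Tyr1) substrate, 10 μM ATP, 10 mM MOPS pH 7.0, 10 mM MgCl2.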

[4] = test system: MV4-11 human acute myeloid leukemia cell with FLT3-ITD mutation; assay: MV4-11 cell proliferation assay (CellTiter 96); type: cell-based; details: Homo sapiens, MV4-11, 72 h, MV4-11 cells, 72 hours treatment, CellTiter96; read-out: anti-proliferation activity MV4-11 (FLT3-ITD), IC50 ranking
How it was run: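 Cells seeded at 6500/well in IMDM with 10% heat-inactivated FBS, left overnight at 37 °C, 5% CO2, then exposed to increasing compound concentrations for 72 h. Viability read as absorbance at 490 nm after 2–4 h with CellTiter96 AQueous One reagent.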

[5] = test system: Molm-14 human acute myeloid leukemia cell with FLT3-ITD mutation; assay: Molm-14 cell proliferation assay (CellTiter 96); type: cell-based; details: Homo sapiens; Molm-14 cells, 72 hours treatment, CellTiter96; read-out: anti-proliferation activity Molm-14 (FLT3-ITD), IC50 ranking
How it was run: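 Molm-14 (FLT3-ITD AML) cells in RPMI 1640 with 10% heat-inactivated FBS were seeded at 25000 cells/well, incubated overnight at 37° C, 5% CO2, then treated with increasing compound concentrations for 72 hours. Viability was read as absorbance at 490 nm after 2˜4 hours with CellTiter96 AQueous One reagent.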

Row | Compound | IC50 (PDGFRα kinase) [nM] | IC50 [4] [nM] | IC50 [5] [nM] | IC50 [1] [nM] | IC50 [2] [nM] | IC50 [3] [nM]
1 | Cc1cc(CN2CCOCC2)ccc1-c1cc2c(s1)Cc1c(-c3ccc4cnn(C)c4c3)n[nH]c1-2 [Compound 91, 4-(3-methyl-4-(3-(1-methyl-1H-indazol-6-yl)-1,4-dihydrothieno [2′,3′:4,5]cyclopenta [1,2-c]pyrazol-6-yl)benzyl)morpholine] | 30 to 100 | 100 to 300 | 100 to 300 | > 10000 | 1000 to 10000 | > 10000
2 | CN(C)Cc1ccc(-c2cc3c(s2)Cc2c(-c4ccc5cnn(C)c5c4)n[nH]c2-3)cn1 [Compound 93, N,N-dimethyl-1-(5-(3-(1-methyl-1H-indazol-6-yl)-1,4-dihydrothieno [2′,3′:4,5]cyclopenta [1,2-c]pyrazol-6-yl)pyridin-2-yl)methanamine] | 100 to 300 | 30 to 100 | 100 to 300 | > 10000 | > 10000 | > 10000
3 | Cn1ncc2ccc(-c3n[nH]c4c3Cc3sc(-c5ccc(CN6CCNCC6=O)cc5)cc3-4)cc21 [Compound 101, 1-(4-(3-(1-methyl-1H-indazol-6-yl)-1,4-dihydro-thieno[2′,3′:4,5]cyclopenta [1,2-c]pyrazol-6-yl)benzyl)piperazin-2-one] | 1 to 10 | < 30 | < 30 | > 10000 | > 10000 | > 10000

More lines, main results first:

Row | IC50 (PDGFRα kinase) [nM] | IC50 [4] [nM] | IC50 [5] [nM] | Compound | IC50 [1] [nM] | IC50 [2] [nM] | IC50 [3] [nM]
4 | 1 to 10 | < 30 | < 30 | Cn1ncc2ccc(-c3n[nH]c4c3Cc3sc(-c5ccc(N)nc5)cc3-4)cc21 [Compound 92, 5-(3-(1-methyl-1H-indazol-6-yl)-1,4-dihydro-thieno[2′,3′:4,5]cyclopenta [1,2-c]pyrazol-6-yl) pyridin-2-amine] | > 10000 | 1000 to 10000 | 1000 to 10000
5 | 1 to 10 | < 30 | < 30 | CN(C)Cc1ccc(-c2cc3c(s2)Cc2c(-c4ccc5cnn(C)c5c4)n[nH]c2-3)cc1 [Compound 94, N,N-dimethyl-1-(4-(3-(1-methyl-1H-indazol-6-yl)-1,4-dihydrothieno [2′,3′:4,5]cyclopenta [1,2-c]pyrazol-6-yl)phenyl)methanamine] | 1000 to 10000 | 1000 to 10000 | 1000 to 10000
